Measurements as given in PMC12371494, “Discovery of YTHDF2 Ligands by Fragment-Based Design” (ACS Bio & Med Chem Au, 2025).

These compounds were tested against T1, GST-YTHDF2 (Homo sapiens, UniProt Q9Y5A9) (assay: HTRF-based binding assay, competition with m6A-oligoRNA, DF2). Conditions: not given.
T1 construct: made in house
T1 sequence (Q9Y5A9 1-579): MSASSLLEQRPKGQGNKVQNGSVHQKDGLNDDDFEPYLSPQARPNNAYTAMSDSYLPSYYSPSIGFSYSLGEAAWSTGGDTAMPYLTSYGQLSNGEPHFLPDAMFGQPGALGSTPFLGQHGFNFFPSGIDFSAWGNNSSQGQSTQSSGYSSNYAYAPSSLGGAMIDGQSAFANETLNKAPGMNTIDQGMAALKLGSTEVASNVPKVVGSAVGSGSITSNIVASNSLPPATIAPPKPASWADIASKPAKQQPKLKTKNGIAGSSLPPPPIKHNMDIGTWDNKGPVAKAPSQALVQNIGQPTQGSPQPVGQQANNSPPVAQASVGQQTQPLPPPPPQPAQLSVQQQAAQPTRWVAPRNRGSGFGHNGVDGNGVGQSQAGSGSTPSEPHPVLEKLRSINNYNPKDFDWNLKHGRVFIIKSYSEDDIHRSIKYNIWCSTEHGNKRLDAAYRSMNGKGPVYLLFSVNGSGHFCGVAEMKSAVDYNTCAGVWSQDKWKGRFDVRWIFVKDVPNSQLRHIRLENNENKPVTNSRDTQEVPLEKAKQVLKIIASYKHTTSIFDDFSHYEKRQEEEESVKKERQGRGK

| SMILES | IC50 |
| --- | --- |
| CC=CC=C1C(=O)NC(=S)NC1=O [Compound 1] | 19 µM |
| Cc1ccccc1NN=C1C(=O)NC(=S)NC1=O [Compound 2] | 170 µM |
| CN(C)c1ccc(C=C2C(=O)NC(=S)NC2=O)cc1 [Compound 7] | 21 µM |
| O=C1NC(=S)NC(=O)C1=NNc1cccc(C(=O)O)c1 [Compound 8] | 6 µM |
| Cc1cccc(NC=C2C(=O)NC(=S)NC2=O)n1 [Compound 9] | 30 µM |
| COc1ccc(C=C2C(=O)NC(=S)NC2=O)cc1C [Compound 10] | 28 µM |
| CC=CC=C1C(=O)NC(=O)NC1=O [Compound 11] | 29 µM |
| COc1ccc(NC=C2C(=O)NC(=O)NC2=O)cc1 [Compound 12] | 40 µM |

Same assay, conditions: HTRF, 100 µM compound

| SMILES | % at 100 µM |
| --- | --- |
| O=c1[nH]c(=S)[nH]c2[nH]ccc12 [Compound S63] | 49% |
| O=c1[nH]c(=S)[nH]c2ccsc12 [Compound S64] | 36% |
| CCc1cc2c(=O)[nH]c(SC)nc2s1 [Compound S65] | 68% |
| Cc1cc2c(=O)n(C3CC3)c(=S)[nH]c2s1 [Compound S66] | 25% |
| Nn1c(=S)[nH]c2sccc2c1=O [Compound S67] | 40% |

Same assay, conditions: HTRF, 1 mM compound, relative to control; average of two technical replicates; * = interference with the assay

| SMILES | Residual signal at 1 mM concentration |
| --- | --- |
| CC(=O)Nc1nnc(C=Cc2cccc([N+](=O)[O-])c2)s1 (mixture of isomers) [Compound S17] | 77% |
| CC=CC=C1C(=O)NC(=S)NC1=O [Compound 1] | 26% |
| Cc1ccccc1NN=C1C(=O)NC(=S)NC1=O [Compound 2] | 12% |
| CNc1cc(=O)[nH]c(=O)[nH]1 [Compound 4] | 18% |
| CNc1ncccc1C(N)=O [Compound 5] | 88% |
| Cc1[nH]nc2ncnc(N)c12 [Compound 6] | 80% |
| O=C1NC(=S)NC(=O)C1=NNc1cccc(C(=O)O)c1 [Compound 8] | 5% |
| COc1ccc(C=C2C(=O)NC(=S)NC2=O)cc1C [Compound 10] | 48% |
| CC=CC=C1C(=O)NC(=O)NC1=O [Compound 11] | 30% |
| O=c1cn[nH]c(=S)[nH]1 [Compound 13] | 5% |
| O=c1[nH]c(=S)[nH]c2n[nH]cc12 [Compound 15] | 17% |
| O=c1[nH]c(=S)[nH]c2nc[nH]c12 [Compound 16] | 2% |
| Cc1cc(=O)c(OCc2ccc(F)cc2)c[nH]1 [Compound S1] | 31% |
| Cc1cc(O)c(OCC(=O)N=c2[nH]cc(C)s2)cn1 [Compound S6] | 60% |
| CCSc1nnc(NC(C)=O)s1 [Compound S7] | 60% |
| Cc1nc(O)c(C=Nc2ccc(Cl)cc2)c(O)n1 [Compound S8] | 21% |
| CC(=O)N=c1[nH]nc(SCC(=O)NC2CCCCC2)s1 [Compound S10] | 50% |
| COc1cc2[nH]c(=O)[nH]c(=O)c2cc1OC [Compound S12] | 60% |
| Cc1cc(O)c2[nH]ncc2n1 [Compound S13] | 62% |

| SMILES | Residual signal at 1 mM concentration |
| --- | --- |
| COC(=O)CNC(=O)COc1c[nH]c(C)cc1=O [Compound S15] | 75% |
| C=CCc1cccc(C=Nc2c[nH]c(=O)[nH]c2=O)c1O [Compound S18] | 79% |
| CN(C)c1cc(=O)[nH]c(=O)[nH]1 [Compound S19] | 85% |
| O=C(Nc1nccs1)C(F)(F)F [Compound S20] | 87% |
| Oc1ccnc(OC(F)F)c1 [Compound S21] | 87% |
| Cc1cc(=O)c2sccc2[nH]1 [Compound S22] | 89% |
| OCCNc1ccc(Cl)nn1 [Compound S23] | > 90% |
| O=C(Nc1nnc[nH]1)C1CC1 [Compound S24] | > 90% |
| CC(O)c1nc2cc(-c3cc(F)cc(Cl)c3)ccc2[nH]1 (stereo not shown) [Compound S25] | > 90% |
| CCCc1nnc(NC(C)=O)s1 [Compound S26] | > 90% |
| Cc1nc(O)c2sccc2n1 [Compound S27] | > 90% |
| CCOC(=O)c1noc(C)n1 [Compound S28] | > 90% |
| COc1cnc(Br)cc1O [Compound S29] | > 90% |
| COc1cccc(-c2ccc3c(N)n[nH]c3n2)c1 [Compound S30] | > 90% |
| FC(F)(F)c1cc(-c2ccc3ccccc3c2)n[nH]1 [Compound S31] | > 90% |
| Cc1nnc(N)n(N)c1=O [Compound S32] | > 90% |
| O=c1cc(O)cc(C(F)(F)F)[nH]1 [Compound S33] | > 90% |
| CCc1cc(NC(=O)c2ccc(C)nc2)[nH]n1 [Compound S34] | > 90% |
| Cc1n[nH]c(N)c1C#N [Compound S36] | > 90% |

| SMILES | Residual signal at 1 mM concentration |
| --- | --- |
| N#Cc1c(C2CC2)n[nH]c1N [Compound S37] | > 90% |
| NC(=O)c1cccnc1NCC1CC1 [Compound S39] | > 90% |
| CC1(C)C(=O)NC(=S)NC1=O [Compound S43] | 11% |
| O=C1CC(=O)NC(=S)N1 [Compound S44] | 79% |
| CN1C(=O)CC(=O)NC1=S [Compound S45] | 75% |
| Cn1cccc1C=C1C(=O)NC(=S)NC1=O [Compound S46] | 13% |
| CN(NC=C1C(=O)NC(=S)NC1=O)c1ccccc1 [Compound S49] | 54% |
| Cc1cc(O)nc(NC=C2C(=O)NC(=S)NC2=O)n1 [Compound S50] | 9% |
| CN(C)c1ccc(C=C2C(=O)NC(=S)NC2=O)o1 [Compound S51] | 35% |
| CCOc1ccc(C=C2C(=O)NC(=S)NC2=O)cc1Cl [Compound S52] | 12% |
| Cc1n[nH]c(=S)[nH]c1=O [Compound S53] | 38% |
| CCNc1cc(=O)[nH]c(=O)[nH]1 [Compound S56] | 51% |
| CNc1ncnc2[nH]nc(C)c12 [Compound S57] | 88% |
| O=c1[nH]c(=O)c2cn[nH]c2[nH]1 [Compound S58] | 47% |
| O=c1[nH]c(=S)[nH]c2sc3c(c12)CCC3 [Compound S59] | 35% |
| CC1CCc2c(sc3[nH]c(=S)[nH]c(=O)c23)C1 (stereo not shown) [Compound S60] | 24% |
| O=c1[nH]c(=S)[nH]c2[nH]ccc12 [Compound S63] | 28% |
| Cc1cc2c(=O)n(C3CC3)c(=S)[nH]c2s1 [Compound S66] | 23% |
| Nn1c(=S)[nH]c2sccc2c1=O [Compound S67] | 23% |

Same assay, conditions: LE = -RT ln IC50/HAC from HTRF IC50

| SMILES | LE (ligand efficiency, DF2) |
| --- | --- |
| CC=CC=C1C(=O)NC(=S)NC1=O [Compound 1] | 0.50 kcal/(mol HAC) |
| Cc1ccccc1NN=C1C(=O)NC(=S)NC1=O [Compound 2] | 0.29 kcal/(mol HAC) |
| CNc1cc(=O)[nH]c(=O)[nH]1 [Compound 4] | 0.49 kcal/(mol HAC) |
| CN(C)c1ccc(C=C2C(=O)NC(=S)NC2=O)cc1 [Compound 7] | 0.34 kcal/(mol HAC) |
| O=C1NC(=S)NC(=O)C1=NNc1cccc(C(=O)O)c1 [Compound 8] | 0.36 kcal/(mol HAC) |
| Cc1cccc(NC=C2C(=O)NC(=S)NC2=O)n1 [Compound 9] | 0.34 kcal/(mol HAC) |
| COc1ccc(C=C2C(=O)NC(=S)NC2=O)cc1C [Compound 10] | 0.33 kcal/(mol HAC) |
| CC=CC=C1C(=O)NC(=O)NC1=O [Compound 11] | 0.48 kcal/(mol HAC) |
| COc1ccc(NC=C2C(=O)NC(=O)NC2=O)cc1 [Compound 12] | 0.32 kcal/(mol HAC) |
| O=c1cn[nH]c(=S)[nH]1 [Compound 13] | 0.73 kcal/(mol HAC) |
| O=c1[nH]c(=S)[nH]c2n[nH]cc12 [Compound 15] | 0.51 kcal/(mol HAC) |
| O=c1[nH]c(=S)[nH]c2nc[nH]c12 [Compound 16] | 0.56 kcal/(mol HAC) |
| CCOc1ccc(C=C2C(=O)NC(=S)NC2=O)cc1Cl [Compound S52] | 0.29 kcal/(mol HAC) |

Same assay, conditions: dose-response, competitor m6A-oligoRNA; read-out: DF2 IC50 (HTRF assay)

| SMILES | IC50 |
| --- | --- |
| CNc1cc(=O)[nH]c(=O)[nH]1 [Compound 4] | 250 µM |
| O=c1cn[nH]c(=S)[nH]1 [Compound 13] | 53 µM |
| O=c1[nH]c(=S)[nH]c2n[nH]cc12 [Compound 15] | 86 µM |
| O=c1[nH]c(=S)[nH]c2nc[nH]c12 [Compound 16] | 30 µM |
| Cc1cc(=O)c(OCc2ccc(F)cc2)c[nH]1 [Compound S1] | 310 µM |
| NCCC1C(=O)NC(=S)NC1=O [Compound S42] | 330 µM |
| CNC=C1C(=O)NC(=S)NC1=O [Compound S47] | 91 µM |
| Cc1cc(O)nc(NC=C2C(=O)NC(=S)NC2=O)n1 [Compound S50] | 57 µM |
| CCOc1ccc(C=C2C(=O)NC(=S)NC2=O)cc1Cl [Compound S52] | 55 µM |
| O=C(CCc1n[nH]c(=S)[nH]c1=O)Nc1ccccc1 [Compound S55] | 190 µM |
| O=c1[nH]c(=S)[nH]c2sc3c(c12)CCC3 [Compound S59] | 53 µM |
| CC1CCc2c(sc3[nH]c(=S)[nH]c(=O)c23)C1 (stereo not shown) [Compound S60] | 80 µM |
| O=c1[nH]c(=O)c2ccsc2[nH]1 [Compound S61] | 290 µM |
| O=c1[nH]c(=S)[nH]c2cnccc12 [Compound S62] | 170 µM |
